Measured values reported in PubChem BioAssay AID449750 (Broad Institute, 2010).
Where “and” joins values, the source holds several entries; their conditions need not be identical. Equal entries are not always repeated. Calls of active or inactive are those of the source. The rule behind the calls is not given here.

Assay: non-covalent RecA intein splicing inhibitors, dose response, biochemical, cell-free, fluorescence, secondary screen (AID 449750)

Row | Structure (SMILES) | AC50
1 | Nc1nc(-c2ccco2)nn1C(=O)c1ccc(Cl)cc1 | > 38 µM (inactive)
2 | COc1ccc(OC)c(C2C(C#N)=C(N)Oc3c2c(C)nn3-c2cccc(Cl)c2)c1 (stereo not drawn) | 30 µM
3 | O=[N+]([O-])c1cc(O)c2ncccc2c1 | 8.43 µM
4 | COc1ccc(S(=O)(=O)Nc2c(O)ccc3ccccc23)cc1OC | 22.9 µM
5 | CC1=NNC(=O)/C1=C\c1cn(-c2ccccc2)nc1-c1ccc(F)cc1 | 12 µM
6 | Cc1c(C#N)c(NC(=O)CCl)n(Cc2cccs2)c1C | 8.86 µM
7 | Cc1sc(NC(=O)CSC2=NCCS2)nc1-c1ccccc1 | 26.1 µM
8 | CC1=NN(c2ccc(C(=O)O)c(N)c2)C(=O)C1 | 2.87 µM
9 | Cc1[nH][nH]c(=O)c1C(c1ccc(-c2ccccc2C(=O)O)o1)c1c(C)[nH][nH]c1=O | 3.19 µM
10 | O=c1c(Cl)c(NCCCO)cnn1-c1nc2ccccc2[nH]1 | > 38 µM (inactive)
11 | CN(CCO)c1cc(Sc2nc3ccccc3s2)c2nonc2c1[N+](=O)[O-] | 7.53 µM
12 | Cc1ccc(N(C(=O)CCl)C(C(=O)NC2CCCCC2)c2cccnc2)cc1C (stereo not drawn) | 1 µM
13 | CSc1nc(-c2ccco2)nn1C(=O)c1cccs1 | > 38 µM (inactive)
14 | N#CC1=C(N)Oc2n[nH]c(-c3cccs3)c2C1c1cccnc1 (stereo not drawn) | > 38 µM (inactive)
15 | CCOC(=O)N/N=C\c1ccc(OC(=O)c2ccco2)cc1 | > 38 µM (inactive)
16 | CCOC(=O)C1=C(c2ccccc2)NC(N)=NC1c1ccc(OCc2ccc(Cl)cc2)c(OC)c1 (stereo not drawn) | 10.2 µM
17 | C/C(=C/CCC(C)[C@H]1CC[C@@]2(C)C3=C(CC[C@]12C)[C@@]1(C)CCC(=O)C(C)(C)[C@@H]1CC3)C(=O)O (stereo partly drawn) | 10.7 µM
18 | O=C(Nc1ccc(Cl)c(Cl)c1)Nc1ccccc1NS(=O)(=O)c1cccs1 | 30.3 µM
19 | O=C1c2ccccc2C(=O)c2c1ncn2-c1ccccc1 | > 38 µM (inactive)
20 | O=c1[nH]c(Nc2ccccc2)cc2cc(Br)ccc12 | 7 µM
21 | CS/C(=C\[N+](=O)[O-])Nc1ccc(OC(F)(F)F)cc1 | > 38 µM (inactive)
22 | CCS(=O)(=O)c1ncc(Cl)c(C(=O)Nc2ccc(S(=O)(=O)N(C)c3ccccc3)cc2)n1 | 1.66 µM
23 | CCc1ccc(NC(=O)CSc2ccc(-c3sc(C)nc3C)nn2)cc1 | > 38 µM (inactive)
24 | CCOc1cc(C(c2c(C)[nH][nH]c2=O)c2c(C)[nH][nH]c2=O)cc([N+](=O)[O-])c1O | 13.1 µM
25 | O=C1C(Cl)=C(N2CCC(C(=O)O)CC2)C(=O)c2ccccc21 | 1.41 µM
26 | CN1CCN(C2=C(Cl)C(=O)C(c3cnc(N4CCCCC4)s3)=C(Cl)C2=O)CC1 | 3.1 µM

Row | Structure (SMILES) | AC50
27 | COc1ccc2noc3c2c1C(=O)c1ccccc1-3 | 24.8 µM
28 | FC(F)(F)c1ccc(C2[C@H]3CN(Cc4cccnc4)[C@H](c4ccccc4)C34CC2(c2cccnc2)C4)cc1 (stereo partly drawn) | 5.51 µM
29 | COc1cccc(NC2=C(Cl)C(=O)OC2OC(=O)c2ccco2)c1 (stereo not drawn) | > 38 µM (inactive)
30 | Cc1ccc(C)c(S(=O)(=O)Nc2ccc(O)c3ccccc23)c1 | 0.598 µM
31 | O=C(NC1CCCCC1)C(c1cccnc1)N(C(=O)CCl)c1cccc(Cl)c1 (stereo not drawn) | 3 µM
32 | S=C1NCCC12C(=S)Nc1ccccc12 (stereo not drawn) | > 38 µM (inactive)
33 | O=C1/C(=C/c2cccc([N+](=O)[O-])c2)CCc2ccccc21 | 11.2 µM
34 | CC(=O)Nc1cc(OC(=O)c2ccco2)cc(OC(=O)c2ccco2)c1 | 11.8 µM
35 | COc1cc(-n2nc(C)c3c2OC(N)=C(C#N)C3c2ccccc2)c(Cl)c(Br)c1O (stereo not drawn) | 16 µM
36 | CCN1CCN(c2c(Cl)cccc2NC(=O)c2ccc3c(c2)OCCO3)CC1 | > 38 µM (inactive)
37 | CCCc1[nH]nc2c1C(CCC)C(C#N)=C(N)O2 (stereo not drawn) | > 38 µM (inactive)
38 | Cc1ccc(C2CC(c3cccs3)=NN2C(=O)CCl)cc1 (stereo not drawn) | 1.68 µM
39 | C/C(CC(=O)Nc1cc(C)ccn1)=N\NC(=O)c1ccncc1 | 37.4 µM
40 | COC(=O)c1ccc(-n2c(C)cc(C(=O)CCl)c2C)cc1 | 17.8 µM
41 | COC(=O)c1[nH]c(=O)c2ccccc2c1O | 12.1 µM
42 | COc1cc(/C=C2/C(=O)N(c3ccc(Br)cc3)N=C2C)cc(OC)c1OC | 7.07 µM
43 | CC/C(=C/c1sc2ccc(C)cc2[n+]1CCO)SC | > 38 µM (inactive)
44 | N#C/C(=C/c1ccncc1)c1nc2ccccc2s1 | > 38 µM (inactive)
45 | O=C(CSc1nnc(Cc2ccccc2)o1)Nc1cccc(F)c1 | > 38 µM (inactive)
46 | CCOc1cccc(-c2cc(=O)[nH][nH]2)c1 | 10.7 µM
47 | CS(=O)(=O)C1=NSC2=NC(=O)/C(=C\c3ccc(OC(=O)c4ccco4)cc3)C(=N)N21 | > 38 µM (inactive)
48 | Cc1cc(C(=O)CCl)c(C)n1CCc1ccccc1 | 14.2 µM
49 | Cc1ccc(-n2nc(C)c3c2OC(N)=C(C#N)C3c2ccc(C)o2)cc1 (stereo not drawn) | 8.87 µM
50 | Cc1ccc(-n2nc(C)c3c2OC(N)=C(C#N)C3c2ccc(F)cc2)cc1 (stereo not drawn) | 26.5 µM
51 | O=C(N/N=C/c1c(O)n(C2CCCCC2)c(=S)[nH]c1=O)c1ccccc1O | 4.36 µM
52 | CCc1nnc(NC(=O)c2nc(S(=O)(=O)Cc3ccccc3)ncc2Cl)s1 | 31.2 µM

Row | Structure (SMILES) | AC50
53 | COc1ccc2nc3cccc(OC)c3nc2c1 | 16.1 µM
54 | COc1cccc(-c2cc(=O)[nH][nH]2)c1 | 13.9 µM
55 | Nc1scc2c(C(=O)N/N=C/c3ccc(Cl)cc3)nn(-c3ccccc3)c(=O)c12 | 28.1 µM
56 | Cc1ccc(NC(=O)c2cc(NC(=O)/C=C\C(=O)O)ccc2N2CCCCC2)cc1 | 9.66 µM
57 | N#C[C@H]1[C@H](c2ccccc2)[C@](C#N)(C(=O)c2ccccc2)[C@@H]2C=Cc3ccccc3N21 | > 38 µM (inactive)
58 | COc1ccc2c(c1)C(=C(C#N)C#N)C(=O)N2CCc1ccccc1 | > 38 µM (inactive)
59 | Nc1ccc(N)c(C(=O)O)c1 | 21 µM
60 | Cc1ccc(C)c(Sc2ccc(NC(=O)CCl)cc2)c1 | 1.27 µM
61 | Cc1cc(O)c(C(C)C)cc1N=Cc1ccccc1O | 5.1 µM
62 | COc1ccc(/C=C2/SC(=S)N(CCCC(=O)Nc3cccc(O)c3)C2=O)cc1 | > 38 µM (inactive)
63 | Cc1ccccc1NC1=C/C(=N\S(=O)(=O)c2ccc(C(=O)O)cc2)c2ccccc2C1=O | 14.7 µM
64 | COc1cc(C=C(c2nc3ccccc3s2)c2nc3ccccc3s2)ccc1O | 3.26 µM
65 | COc1ccc(S(=O)(=O)/N=C2\C=C(Nc3ccc(O)cc3)C(=O)c3ccccc32)cc1 | 2.53 µM
66 | COC(=O)N/N=C\c1ccc(OC(=O)c2ccco2)cc1 | > 38 µM (inactive)
67 | O=C(CCl)N1N=C(c2ccco2)CC1c1cccs1 (stereo not drawn) | 6.09 µM
68 | Cc1ccc(NC(=O)c2nc(S(=O)(=O)Cc3ccccc3C)ncc2Cl)cc1C | > 38 µM (inactive)
69 | Cc1nn(-c2ccccc2)c2c1C(c1ccc(F)cc1)C(C#N)=C(N)O2 (stereo not drawn) | 28.4 µM
70 | C=CCOc1ccccc1CN(C(=O)CCl)c1ccc2c(c1)OCO2 | 1.28 µM
71 | COc1ccc(CNC(=O)c2c(C)oc3c2C(=O)c2ccccc2C3=O)cc1 | 14.3 µM
72 | CC(C)c1[nH]nc2c1C(c1cccs1)C(C#N)=C(N)O2 (stereo not drawn) | > 38 µM (inactive)
73 | CC(C)(C)c1[nH]nc2c1C(c1ccoc1)C(C#N)=C(N)O2 (stereo not drawn) | > 38 µM (inactive)
74 | CC1=C(C(=O)OC(C)C)C2(O)C(=O)c3ccccc3C2(O)N1 (stereo not drawn) | 9.7 µM
75 | CCCCCCCCCCOC(=O)Cn1c(COc2ccc(OC)cc2)[n+](C)c2ccccc21 | 8.31 µM and 8.42 µM
76 | CCc1nnc(NC(=O)c2nc(S(=O)(=O)Cc3ccc(C)cc3)ncc2Cl)s1 | > 38 µM (inactive)
77 | COC(=O)c1sc(N)c(C(=O)OC)c1Cn1ncc(Cl)c(Cl)c1=O | > 38 µM (inactive)
78 | O=C1CCCC(O)=C1C(C#Cc1ccccc1)C1=C(O)CCCC1=O | 14.7 µM
